In patent US8497380B2, “Substituted acetophenones useful as PDE4 inhibitors” (Leo Pharma A/S, priority 2006, dated 2013):

What follows are compounds tested on Human peripheral blood mononuclear cells (PBMC) (assay: TNFalfa-Release). Conditions: inhibition of TNF-a secretion, PBMC pre-incubated 30 minutes, stimulated 18 hours with lipopolysaccharide.
Type: cell-based
Experimental: Human peripheral blood mononuclear cells (PBMC) are Isolated from buffy coats. The blood is mixed with saline at a ratio of 1:1, and the PBMC is isolated by the use of Lymphoprep Tubes™ (Nycomed, Norway). The PBMC is suspended in RPMI1640 with 2% foetal calf serum (FCS), pen/strep and 2 mM L-glutamine at a concentration of 5×105 c/ml. The cells are pre-incubated for 30 minutes with the test compounds in 96 well tissue culture plates and stimulated for 18 hours with lipopolysaccharide 1 mg/ml (Sigma). The level of TNF-a is measured in the culture supernatant by enzyme immuno assays using primary and secondary biotinylated antibodies from R&D systems. Results are expressed as pIC50 values calculated from inhibition curves using as positive controls the secretion in LPS stimulated wells and as negative controls the secretion in unstimulated cells.
In the case of COc1ccc(C(=O)Cc2c(Cl)cncc2Cl)c(OC(F)F)c1OC(F)F [Compound 107, 1-(2,3-Bis-difluoromethoxy-4-methoxy-phenyl)-2-(3,5-dichloro-pyridin-4-yl)-ethanone], the IC50 is reported as less than 1000 nM. For C=CCCOc1c(OC)ccc(C(=O)Cc2c(Cl)cncc2Cl)c1OCC=C [Compound 190, 1-(2-Allyloxy-3-but-3-enyloxy-4-methoxy-phenyl)-2-(3,5-dichloro-pyridin-4-yl)-ethanone], the IC50 was less than 1000 nM. COc1ccc(C(=O)Cc2c(Cl)cncc2Cl)c(OCC(=O)NCc2cccc(F)c2F)c1OC [Compound 235, 2-{6-[2-(3,5-Dichloro-pyridin-4-yl)-acetyl]-2,3-dimethoxy-phenoxy}-N-(2,3-difluoro-benzyl)-acetamide] gave an IC50 of less than 1000 nM. COc1ccc(C(=O)Cc2c(Cl)cncc2Cl)c(OCCO)c1OC [Compound 155, 2-(3,5-Dichloro-pyridin-4-yl)-1-[2-(2-hydroxy-ethoxy)-3,4-dimethoxy-phenyl]-ethanone] gave an IC50 of less than 1000 nM. Work on COc1ccc(C(=O)Cc2c(Cl)cncc2Cl)c(OCC(=O)NCc2ccncc2)c1OC [Compound 232, 2-{6-[2-(3,5-Dichloro-pyridin-4-yl)-acetyl]-2,3-dimethoxy-phenoxy}-N-pyridin-4-ylmethyl-acetamide] yielded an IC50 of less than 1000 nM. In the case of COc1ccc(C(=O)Cc2c(Cl)cncc2Cl)c(OCc2ccc(C#N)cc2)c1OC [Compound 148, 4-{6-[2-(3,5-Dichloro-pyridin-4-yl)-acetyl]-2,3-dimethoxy-phenoxymethyl}-benzonitrile], the IC50 is reported as less than 1000 nM. CCOC(=O)COc1c(C(=O)Cc2c(Cl)cncc2Cl)ccc(OC)c1OC [Compound 119, {6-[2-(3,5-Dichloro-pyridin-4-yl)-acetyl]-2,3-dimethoxy-phenoxy}-acetic acid ethyl ester] showed an IC50 of less than 1000 nM. Compound COc1ccc(C(=O)Cc2c(Cl)cncc2Cl)c(OCC(=O)O)c1OC [Compound 504, {6-[2-(3,5-Dichloro-pyridin-4-yl)-acetyl]-2,3-dimethoxy-phenoxy}-acetic acid] has an IC50 of less than 1000 nM. With COc1ccc(C(=O)Cc2c(Cl)cncc2Cl)c(OCCc2ccncc2)c1OC [Compound 277, 2-(3,5-Dichloro-pyridin-4-yl)-1-[3,4-dimethoxy-2-(2-pyridin-4-yl-ethoxy)-phenyl]-ethanone] the IC50 was less than 1000 nM. Work on COc1ccc(C(=O)Cc2c(Cl)cncc2Cl)c(OCCc2cccnc2)c1OC [Compound 280, 2-(3,5-Dichloro-pyridin-4-yl)-1-[3,4-dimethoxy-2-(2-pyridin-3-yl-ethoxy)-phenyl]-ethanone] yielded an IC50 of less than 1000 nM. Work on COc1ccc(C(=O)Cc2c(Cl)cncc2Cl)c(OCc2ccccc2Cl)c1OC [Compound 176, 1-[2-(2-Chloro-benzyloxy)-3,4-dimethoxy-phenyl]-2-(3,5-dichloro-pyridin-4-yl)-ethanone] yielded an IC50 of less than 1000 nM. Compound COc1ccc(C(=O)Cc2c(Cl)cncc2Cl)c(OCC(=O)NC2c3ccccc3C[C@H]2O)c1OC (stereo partly drawn) [Compound 256, (2R)-2-{6-[2-(3,5-Dichloro-pyridin-4-yl)-acetyl]-2,3-dimethoxy-phenoxy}-N-(2-hydroxy-indan-1-yl)-acetamide] has an IC50 of less than 1000 nM. Compound COc1ccc(C(=O)Cc2c(Cl)cncc2Cl)c(OCC(=O)NC2CCCCCC2)c1OC [Compound 217, N-Cycloheptyl-2-{6-(2-(3,5-dichloro-pyridin-4-yl)-acetyl)-2,3-dimethoxy-phenoxy}-acetamide] has an IC50 of less than 1000 nM. With COc1ccc(C(=O)Cc2c(Cl)cncc2Cl)c(OCC(=O)NCCc2ccccn2)c1OC [Compound 236, 2-{6-[2-(3,5-Dichloro-pyridin-4-yl)-acetyl]-2,3-dimethoxy-phenoxy}-N-(2-pyridin-2-yl-ethyl)-acetamide] the IC50 was less than 1000 nM. COc1ccc(C(=O)Cc2c(Cl)cncc2Cl)c(OCC(=O)NCCCN(C)C)c1OC [Compound 225, 2-{6-[2-(3,5-Dichloro-pyridin-4-yl)-acetyl]-2,3-dimethoxy-phenoxy}-N-(3-dimethylamino-propyl)-acetamide] showed an IC50 of less than 1000 nM. Work on CCCCNC(=O)COc1c(C(=O)Cc2c(Cl)cncc2Cl)ccc(OC)c1OC [Compound 210, N-Butyl-2-{6-[2-(3,5-dichloro-pyridin-4-yl)-acetyl]-2,3-dimethoxy-phenoxy}-acetamide] yielded an IC50 of less than 1000 nM. COc1ccc(C(=O)Cc2c(Cl)cncc2Cl)c(OCc2nnc(C3CC3)s2)c1OC [Compound 117] gave an IC50 of less than 1000 nM. Work on COc1ccc(C(=O)Cc2c(Cl)cncc2Cl)c(OCc2cccc(OC(F)(F)F)c2)c1OC [Compound 163, 2-(3,5-Dichloro-pyridin-4-yl)-1-[3,4-dimethoxy-2-(3-trifluoromethoxy-benzyloxy)-phenyl]-ethanone] yielded an IC50 of less than 1000 nM. Work on COc1ccc(C(=O)Cc2c(Cl)cncc2Cl)c(OCC(=O)NCCc2ccccc2)c1OC [Compound 241, 2-{6-[2-(3,5-Dichloro-pyridin-4-yl)-acetyl]-2,3-dimethoxy-phenoxy}-N-phenethyl-acetamide] yielded an IC50 of less than 1000 nM. COc1ccc(C(=O)Cc2c(Cl)cncc2Cl)c(OCC(=O)NCCC(C)C)c1OC [Compound 212, 2-{6-[2-(3,5-Dichloro-pyridin-4-yl)-acetyl]-2,3-dimethoxy-phenoxy}-N-(3-methyl-butyl)-acetamide] gave an IC50 of less than 1000 nM. COc1ccc(C(=O)Cc2c(Cl)cncc2Cl)c(OCC(=O)NCCN(C)C)c1OC [Compound 224, 2-{6-[2-(3,5-Dichloro-pyridin-4-yl)-acetyl]-2,3-dimethoxy-phenoxy}-N-(2-dimethylamino-ethyl)-acetamide] gave an IC50 of less than 1000 nM. COc1ccc(C(=O)Cc2c(Cl)cncc2Cl)c(OCCC(C)C)c1OC [Compound 135, 2-(3,5-Dichloro-pyridin-4-yl)-1-(3,4-dimethoxy-2-(3-methyl-butoxy)-phenyl)-ethanone] was tested, and the IC50 was less than 1000 nM. COc1ccc(C(=O)Cc2c(Cl)cncc2Cl)c(OCC(=O)NCc2ccccn2)c1OC [Compound 229, 2-{6-[2-(3,5-Dichloro-pyridin-4-yl)-acetyl]-2,3-dimethoxy-phenoxy}-N-pyridin-2-ylmethyl-acetamide] was tested, and the IC50 was less than 1000 nM. Compound CCCNC(=O)COc1c(C(=O)Cc2c(Cl)cncc2Cl)ccc(OC)c1OC [Compound 208, 2-{6-[2-(3,5-Dichloro-pyridin-4-yl)-acetyl]-2,3-dimethoxy-phenoxy}-N-propyl-acetamide] has an IC50 of less than 1000 nM. For COc1ccc(C(=O)Cc2c(Cl)cncc2Cl)c(OCC(=O)NC(C)C)c1OC [Compound 209, 2-{6-[2-(3,5-Dichloro-pyridin-4-yl)-acetyl]-2,3-dimethoxy-phenoxy}-N-isopropyl-acetamide], the IC50 was less than 1000 nM. COc1ccc(C(=O)Cc2c(Cl)cncc2Cl)c(OCC(=O)NCCO)c1OC [Compound 220, 2-{6-[2-(3,5-Dichloro-pyridin-4-yl)-acetyl]-2,3-dimethoxy-phenoxy}-N-(2-hydroxy-ethyl)-acetamide] was tested, and the IC50 was less than 1000 nM. CCOc1c(OC)ccc(C(=O)Cc2c(Cl)cncc2Cl)c1OCc1nnc(C2CC2)s1 [Compound 264, 1-[2-(5-Cyclopropyl-[1,3,4]thiadiazol-2-ylmethoxy)-3-ethoxy-4-methoxy-phenyl]-2-(3,5-dichloro-pyridin-4-yl)-ethanone] gave an IC50 of less than 1000 nM. In the case of CCc1ccc(CNC(=O)COc2c(C(=O)Cc3c(Cl)cncc3Cl)ccc(OC)c2OC)cc1 [Compound 233, 2-{6-[2-(3,5-Dichloro-pyridin-4-yl)-acetyl]-2,3-dimethoxy-phenoxy}-N-(4-ethyl-benzyl)-acetamide], the IC50 is reported as less than 1000 nM. In the case of COc1ccc(C(=O)Cc2c(Cl)cncc2Cl)c(OCC(=O)N[C@H](C)c2ccccc2)c1OC [Compound 221, (R)-2-{6-[2-(3,5-Dichloro-pyridin-4-yl)-acetyl]-2,3-dimethoxy-phenoxy}-N-(1-phenyl-ethyl)-acetamide], the IC50 is reported as less than 1000 nM. COc1ccc(C(=O)Cc2c(Cl)cncc2Cl)c(OCc2ccc(C)c(F)c2F)c1OC [Compound 171, 2-(3,5-Dichloro-pyridin-4-yl)-1-(2-(2,3-difluoro-4-methyl-benzyloxy)-3,4-dimethoxy-phenyl)-ethanone] was tested, and the IC50 was less than 1000 nM. CCOc1c(OC)ccc(C(=O)Cc2c(Cl)cncc2Cl)c1OCCc1ccccc1 [Compound 263, 2-(3,5-Dichloro-pyridin-4-yl)-1-(3-ethoxy-4-methoxy-2-phenethyloxy-phenyl)-ethanone] was tested, and the IC50 was less than 1000 nM. Work on COc1ccc(C(=O)Cc2c(Cl)cncc2Cl)c(OCCN2C(=O)c3ccccc3C2=O)c1OC [Compound 185, 2-(2-{6-[2-(3,5-Dichloro-pyridin-4-yl)-acetyl]-2,3-dimethoxy-phenoxy}-ethyl)-isoindole-1,3-dione] yielded an IC50 of less than 1000 nM. COc1ccc(C(=O)Cc2c(Cl)cncc2Cl)c(OCCc2ccccc2F)c1OC [Compound 130, 2-(3,5-Dichloro-pyridin-4-yl)-1-(2-[2-(2-fluoro-phenyl)-ethoxy)-3,4-dimethoxy-phenyl]-ethanone] gave an IC50 of less than 1000 nM. In the case of COc1ccc(C(=O)Cc2c(Cl)cncc2Cl)c(OCC(=O)NCCCO)c1OC [Compound 222, 2-{6-[2-(3,5-Dichloro-pyridin-4-yl)-acetyl]-2,3-dimethoxy-phenoxy}-N-(3-hydroxy-propyl)-acetamide], the IC50 is reported as less than 1000 nM. Compound CCCNC(=O)COc1c(C(=O)Cc2ccnc3ccccc23)ccc(OC)c1OC [Compound 290] has an IC50 of less than 1000 nM. COc1ccc(C(=O)Cc2c(Cl)cncc2Cl)c(OCc2csc(C)n2)c1OC [Compound 116, 2-(3,5-Dichloro-pyridin-4-yl)-1-[3,4-dimethoxy-2-(2-methyl-thiazol-4-ylmethoxy)-phenyl]-ethanone] was tested, and the IC50 was less than 1000 nM. CCOc1c(OC)ccc(C(=O)Cc2c(Cl)cncc2Cl)c1OC [Compound 188, 2-(3,5-Dichloro-pyridin-4-yl)-1-(3-ethoxy-2,4-dimethoxy-phenyl)-ethanone] was tested, and the IC50 was less than 1000 nM.
